# In PubChem BioAssay AID1963438 (Molecular Pharmacology Branch, DTP, NCI, 2024):
# Tested on: NCI-H510 multicellular tumor spheroid growth, % test/control
# Experiment: Anticancer human tumor NCI-H510 cell line growth inhibition [Asc];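 note: spheroids exposed to agents for 7 days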;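 for viability, T/C: 100% = DMSO vehicle control wells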
# Details: for IC50: curve of first compound; for viability, T/C: stronger effect = lower value
# Outline: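 Complex spheroids combining tumor cells with HUVEC endothelial cells and human MSCs, at 37 degrees C, 5% CO2; agents tested alone or combined, half-log dilutions from at or near clinical Cmax, or 10 microM if Cmax unknown.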
smiles,measurement,setting,value
C=CC(=O)N1CCN(c2nc(=O)n(-c3c(C)ccnc3C(C)C)c3nc(-c4c(O)cccc4F)c(F)cc23)C(C)C1 (stereo not given) + Cc1c(S(C)(=O)=O)c(-c2cc(F)cc(N3CCN(c4ccc(NS(=O)(=O)c5ccc(NC(CCN6CCC(C(=O)OCCCP(=O)(O)O)CC6)CSc6ccccc6)c(S(=O)(=O)C(F)(F)F)c5)cc4)CC3)c2)c(-c2ccc(Cl)cc2)n1C(C)C,IC50,second compound 0.1 µM,> 10 µM
same,IC50,second compound 0.316 µM,> 10 µM
same,IC50,second compound 1 µM,> 10 µM
same,IC50,second compound 3.16 µM,> 10 µM
same,IC50,second compound 10 µM,> 10 µM
same,"viability, T/C","second compound 0.1 µM, first compound 0.0316 µM",102%
same,"viability, T/C","second compound 0.1 µM, first compound 0.1 µM",110%
same,"viability, T/C","second compound 0.1 µM, first compound 0.316 µM",124%
same,"viability, T/C","second compound 0.1 µM, first compound 1 µM",94.7%
same,"viability, T/C","second compound 0.1 µM, first compound 3.16 µM",86.3%
same,"viability, T/C","second compound 0.1 µM, first compound 10 µM",98.4%
same,"viability, T/C","second compound 0.316 µM, first compound 0.0316 µM",106%
same,"viability, T/C","second compound 0.316 µM, first compound 0.1 µM",103%
same,"viability, T/C","second compound 0.316 µM, first compound 0.316 µM",115%
same,"viability, T/C","second compound 0.316 µM, first compound 1 µM",103%
same,"viability, T/C","second compound 0.316 µM, first compound 3.16 µM",109%
same,"viability, T/C","second compound 0.316 µM, first compound 10 µM",86%
same,"viability, T/C","second compound 1 µM, first compound 0.0316 µM",85.6%
same,"viability, T/C","second compound 1 µM, first compound 0.1 µM",89.5%
same,"viability, T/C","second compound 1 µM, first compound 0.316 µM",115%
same,"viability, T/C","second compound 1 µM, first compound 1 µM",121%
same,"viability, T/C","second compound 1 µM, first compound 3.16 µM",98.1%
same,"viability, T/C","second compound 1 µM, first compound 10 µM",79.3%
same,"viability, T/C","second compound 3.16 µM, first compound 0.0316 µM",80%
same,"viability, T/C","second compound 3.16 µM, first compound 0.1 µM",100%
same,"viability, T/C","second compound 3.16 µM, first compound 0.316 µM",117%
same,"viability, T/C","second compound 3.16 µM, first compound 1 µM",118%
same,"viability, T/C","second compound 3.16 µM, first compound 3.16 µM",79.7%
same,"viability, T/C","second compound 3.16 µM, first compound 10 µM",108%
same,"viability, T/C","second compound 10 µM, first compound 0.0316 µM",102%
same,"viability, T/C","second compound 10 µM, first compound 0.1 µM",106%
same,"viability, T/C","second compound 10 µM, first compound 0.316 µM",97.8%
same,"viability, T/C","second compound 10 µM, first compound 1 µM",100%
same,"viability, T/C","second compound 10 µM, first compound 3.16 µM",89.4%
same,"viability, T/C","second compound 10 µM, first compound 10 µM",81.9%
